Paper PMC11091879, “Inhibitors of the Thioesterase Activity of Mycobacterium tuberculosis Pks13 Discovered Using DNA-Encoded Chemical Library Screening” (ACS Infectious Diseases, 2024)
In brackets after ≈: the same amount, converted by molar mass. Like-named read-outs stand apart in the source and are kept apart here.

Tests used:
Pks13-TE = Pks13-TE (Mycobacterium tuberculosis, UniProt I6X8D2); test: biochemical; format: binding
WT H37Rv = test: microbe, parasite or virus in culture; format: cell-based, Mycobacterium tuberculosis; details: for MIC: Mycobacterium tuberculosis, H37RV
[1] = test system: pks13-TetON +ATc (Pks13-hypermorph); format: cell-based, Mycobacterium tuberculosis
[2] = test system: pks13-TetON -ATc (hypomorph); format: cell-based, Mycobacterium tuberculosis

Sequence of Pks13-TE (I6X8D2 1451-1733 limits assumed): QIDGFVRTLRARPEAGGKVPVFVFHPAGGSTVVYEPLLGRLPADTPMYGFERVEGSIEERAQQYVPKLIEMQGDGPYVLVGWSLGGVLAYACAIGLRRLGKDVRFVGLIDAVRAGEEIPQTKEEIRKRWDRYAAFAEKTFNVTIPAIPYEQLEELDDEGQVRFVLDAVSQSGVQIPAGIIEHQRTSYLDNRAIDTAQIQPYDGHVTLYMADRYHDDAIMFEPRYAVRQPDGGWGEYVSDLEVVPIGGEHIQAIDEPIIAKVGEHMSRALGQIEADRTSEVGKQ

Compound | MIC (WT H37Rv; read-out: WT H37Rv MIC (uM)) [µM] | Hypermorph MIC fold shift (+ATc/WT) [1] [fold] | Hypomorph MIC fold shift (WT/-ATc) [2] [fold] | IC50 (Pks13-TE; IC50 (uM)) [µM] | IC50 (Pks13-TE; read-out: IC50) [µM] | MIC (WT H37Rv; read-out: WT H37Rv MIC) [µM] | other results
CCC(C)(C)c1ccc(S(=O)(=O)N[C@@H](Cc2ccccc2)[C@@H](O)Cc2nc(N(C)C)no2)cc1 [X20348] | > 250 |  |  |  |  |  | IC50 (Pks13-TE; enzyme potency / IC50): 0.47 µM
Cc1cc(C(=O)NCc2ccccc2)nc(N2CCC(C(=O)N3CCN(C(=O)c4cnc5c(C)cccc5c4)CC3)CC2)n1 [X20377] | 0.21 (≈ 0.124 µg/mL) | 2.6 | 3.5 | 0.85 |  |  | MIC (WT H37Rv; read-out: MIC (Mtb inhibition)): 0.21 µM (≈ 0.124 µg/mL)
COc1ccc2[nH]c(C(=O)N3CCN(C(=O)C4CCN(c5nc(C)cc(C(=O)NCc6ccccc6)n5)CC4)CC3)cc2c1OC [X20419] | 0.044 (≈ 0.0275 µg/mL) | 2.5 | 1.8 | 0.48 |  |  | fold improvement in enzyme inhibition (Pks13-TE): 30 fold; MIC (WT H37Rv; read-out: MIC (Mtb inhibition)): 0.04 µM (≈ 0.025 µg/mL)
Cc1cc(C(=O)NCc2ccccc2)nc(N2CCC(CN3CCN(C(=O)c4cnc5c(C)cccc5c4)CC3)CC2)n1 [X21352] | 5.2 (≈ 3 µg/mL) | 6.1 | 1.7 | 0.46 |  |  | 
Cc1cc(C(=O)NCc2ccccc2)nc(N2CCC(C(=O)N3CCN(C(=O)c4ccc5nc(C)sc5c4)CC3)CC2)n1 [X21408] |  | 5.4 | 1.5 |  | 0.46 |  | WT H37Rv MIC (WT H37Rv): 0.10 µM
COc1ccn2nc(C(=O)N3CCN(C(=O)C4CCN(c5nc(C)cc(C(=O)NCc6ccccc6)n5)CC4)CC3)cc2c1 [X21411] | 0.21 (≈ 0.125 µg/mL) | 6.0 | 2.1 | 0.48 |  |  | 
Cc1cccc2cc(C(=O)N3CCN(C(=O)C4CCN(c5nccc(C(=O)NCc6ccccc6)n5)CC4)CC3)cnc12 [X21424] | 2.6 (≈ 1.5 µg/mL) | 5.8 | 3.0 | 0.39 |  |  | 
CNC(=O)c1cc(C(C)C)nc(N2CCC(C(=O)N3CCN(C(=O)c4ccc(-n5nc(C)cc5C)nc4)CC3)CC2)n1 [X21426] |  | 4.8 | 1.5 |  | 0.62 | 13 (≈ 7.46 µg/mL) | 
Cc1cc(C(=O)NCc2ccncc2)nc(N2CCC(C(=O)N3CCN(C(=O)c4cnc5c(C)cccc5c4)CC3)CC2)n1 [X21429] | 0.24 (≈ 0.142 µg/mL) | 3.9 | 2.3 | 0.42 |  |  | MIC (WT H37Rv; read-out: MIC (whole cell activity)): 0.24 µM (≈ 0.142 µg/mL)
COc1ccc(Cl)cc1-c1ccc(-c2cn(CCc3ccc(C(=O)N(C)C)cc3)nn2)cn1 [X21434] | 1.1 (≈ 0.508 µg/mL) | 5.4 | 2.4 | 0.46 |  |  | 
COc1ccc(OC)c(-c2ncc(-c3cn(CCc4ccc(C(=O)N(C)C)cc4)nn3)cn2)c1 [X21435] | > 125 |  |  | 0.58 |  |  | 
COc1ccc(Cl)c(-c2ccc(-c3cn(CCc4ccc(C(=O)N(C)C)cc4)nn3)cn2)c1 [X21464] | 5.5 (≈ 2.54 µg/mL) | 3.8 | 2.4 | 0.38 |  |  | 
COc1ccc(OC)c(-c2ccc(-c3nc(N(C)Cc4ccc(C(=O)N(C)C)cc4)no3)cn2)c1 [X21475] |  |  |  |  | > 20 |  | 
Cc1cccc(-c2ccc(-c3cn(CCc4ccc(C(=O)N(C)C)cc4)nn3)cn2)c1C [X21478] | 12 (≈ 5.11 µg/mL) | 17 | 1.9 | 0.47 |  |  | 
Cc1cccc2cc(-c3cn(CCc4ccc(C(=O)N(C)C)cc4)nn3)cnc12 [X21497] |  |  |  |  | > 10 |  | WT H37Rv MIC (WT H37Rv): > 125 µM
COc1ccc(OC)c(-c2ccc(-c3cn(CCc4ccncc4)nn3)cn2)c1 [X21498] |  | 2.7 | 1.5 |  | 0.37 |  | WT H37Rv MIC (WT H37Rv): 0.26 µM
COc1ccc(OC)c(-c2ncc(-c3cn(CCc4ccc(C(=O)N(C)C)cc4)nn3)cc2C)c1 [X21499] | 18 (≈ 8.49 µg/mL) |  | 1.6 | 0.58 |  |  | 
CN(C)C(=O)c1ccc(CCn2cc(-c3ccc(-c4ccccc4C(F)(F)F)nc3)nn2)cc1 [X21502] |  |  |  |  | 0.59 | > 125 | 
COc1ccc(OC)c(-c2ccc(-c3cn(CCc4ccc(-c5nccn5C)cc4)nn3)cn2)c1 [X21542] |  | 2.7 | 1.9 |  | 0.5 | 0.17 (≈ 0.0793 µg/mL) | 
COc1ccc(OC)c(-c2ccc(-c3cn(CCc4ccc5c(cnn5C)c4)nn3)cn2)c1 [X21543] |  | 1.7 | 3.4 |  | 0.49 | 0.35 (≈ 0.154 µg/mL) | 

Compound | MIC (WT H37Rv; read-out: WT H37Rv MIC (uM)) [µM] | Hypermorph MIC fold shift (+ATc/WT) [1] [fold] | Hypomorph MIC fold shift (WT/-ATc) [2] [fold] | IC50 (Pks13-TE; IC50 (uM)) [µM] | IC50 (Pks13-TE; read-out: IC50) [µM] | MIC (WT H37Rv; read-out: WT H37Rv MIC) [µM] | other results
COc1ccc(OC)c(-c2ccc(-c3cn(CCc4ccc5nn(C)cc5c4)nn3)cn2)c1 [X21544] |  | 1.5 | 2.7 |  | 0.55 | 0.47 (≈ 0.207 µg/mL) | 
COc1ccc(OC)c(-c2ccc(-c3cn(CCc4ccc(S(=O)(=O)N(C)C)cc4)nn3)cn2)c1 [X21545] |  | 2.8 | 3.2 |  | 0.53 | 1.3 (≈ 0.642 µg/mL) | 
Cc1ccccc1-c1ncc(-c2cn(CCc3ccc(C(=O)N(C)C)cc3)nn2)s1 [X21546] | 18 (≈ 7.52 µg/mL) |  | 1.9 | 0.37 |  |  | 
COc1ccc(OC)c(-n2ncc(-c3cn(CCc4ccc(C(=O)N(C)C)cc4)nn3)c2C)c1 [X21558] |  |  |  |  | > 20 |  | 
Cc1c(-c2cn(CCc3ccc(C(=O)N(C)C)cc3)nn2)cnn1-c1ccccc1F [X21774] |  |  |  |  | > 10 | > 125 | 
Cc1cc(C(=O)NCc2ccccc2)nc(N2CCC(C(=O)N3CCN(C(=O)c4ccc(-n5nc(C)cc5C)nc4)CC3)CC2)n1 [X22239] |  | 3.7 | 1.9 |  | 0.64 | 0.066 (≈ 0.041 µg/mL) | 
Cc1cc(C(=O)NCc2ccccc2)nc(N2CCC(C(=O)N3CCN(C(=O)c4ccc5nc(C)ccc5c4)CC3)CC2)n1 [X22275] |  | 2.7 | 2.3 |  | 0.62 | 0.048 (≈ 0.0284 µg/mL) | 
COc1ccn2nc(C(=O)N3CCN(C(=O)C4CCN(c5nc(C)cc(C(=O)N6CCCC6)n5)CC4)CC3)cc2c1 [X22276] |  |  |  |  | > 10 | > 125 | 
Cc1cc(CNC(=O)c2cc(C)nc(N3CCC(C(=O)N4CCN(C(=O)c5ccc6nc(C)ccc6c5)CC4)CC3)n2)cc(C)n1 [X22277] |  | 1.8 | 2.6 |  | 0.53 | 0.54 (≈ 0.335 µg/mL) | 
COc1ccn2nc(C(=O)N3CCN(C(=O)C4CCN(c5nc(C)cc(C(F)(F)F)n5)CC4)CC3)cc2c1 [X22279] |  |  |  |  | > 10 | > 125 | 
CNC(=O)c1cc(C)nc(N2CCC(C(=O)N3CCCN(C(=O)c4cnn5ccc(OC)cc45)CC3)CC2)n1 [X22280] |  |  |  |  | > 10 | > 125 | 
COc1ccc(F)cc1-c1ccc(-c2cn(Cc3ccncc3)nn2)cn1 [X22307] |  |  |  |  | > 10 |  | WT H37Rv MIC (WT H37Rv): > 125 µM
Cc1ccc(F)cc1-c1ccc(-c2cn(CCc3ccc4c(cnn4C)c3)nn2)cn1 [X22309] |  |  |  |  | 0.62 | > 125 | 
Cn1ncc2cc(CCn3cc(-c4ccc(-c5cc(C(F)(F)F)ccc5F)nc4)nn3)ccc21 [X22311] |  |  |  |  | 0.77 | > 125 | 
Cn1ncc2cc(CCn3cc(-c4ccc(N5CC(F)(F)C5)nc4)nn3)ccc21 [X22317] |  |  |  |  | > 10 | > 125 | 
Cn1ncc2cc(CCn3cc(-c4ccc(OCc5ccccc5)nc4)nn3)ccc21 [X22346] |  |  |  |  | > 10 |  | WT H37Rv MIC (WT H37Rv): > 125 µM
COc1ccc(OC)c(-c2ccc(-n3cc(C4CN(c5ccc(C(=O)N(C)C)cc5)C4)nn3)cn2)c1 [X23436] |  |  |  |  | 0.37 |  | 
COc1ccc(OC)c(-c2ccc(-c3cn(C4CN(c5ccc6nn(C)cc6c5)C4)nn3)cn2)c1 [X23479] |  |  |  |  | 0.46 |  | 
COc1ccc(F)cc1-c1ccc(-c2cn(C3CN(c4ccc(C(=O)N(C)C)cc4)C3)nn2)cn1 [X23488] |  |  |  |  | 0.62 |  | 
COc1ccc(OC)c(-c2ccc(-c3cn(C4CCN(c5ccc(C(=O)N(C)C)cc5)C4)nn3)cn2)c1 (stereo not shown) [X23546] |  |  |  |  | 0.65 |  | 
